Data reported in patent publication US10258043B2, “Pesticide compositions and methods for controlling invertebrate pests” (Adama Makhteshim Ltd., priority 2012, dated 2019).

Tested on: German cockroaches
Test: Second series of evaluations: pyriproxyfen and novaluron alone and in combination on three substrates
Type: in vivo
Conditions: preliminary results
Procedure: Ceramic tile, vinyl tile, and unpainted plywood panels measuring 6″×6″ were cleaned using soapy water to remove any residue left over from the manufacturing process and left to dry overnight. Six (6) L plastic storage boxes (Sterlite®) with lids were purchased from a local hardware store (Home Depot, Riverbank, Calif.) and cleaned as well and allowed to dry. Each substrate was treated with 0.95 mL of test material (1 gallon/1,000 ft^2 equivalent) prepared in accordance with Example 1 using a Pipetteman 1000, with the material being evenly distributed over the entire surface of the substrate using an acid brush. The material was allowed to dry and the substrates were placed into the plastic storage boxes, one per box. A 5 cm Petri dish was filled with dog food and a slice of orange for nourishment, and a water tube was added for moisture. The food dish was placed directly on the treated substrate to force exposure of the cockroaches. A 6″ rolled piece of corrugated cardboard was placed in each replicate for harborage. A thin layer of petroleum jelly/mineral oil was applied to the rim to prevent escape.
Approximately forty (40) second and third instar nymphs were placed in each replicate and the lid was placed on top. Five replicates were prepared, one for each of the four treatments set forth in Table 2 and an untreated control. […]

Compound	Molting abnormalities of mid-instar cockroaches (all three substrates)	Morphological characteristics of juvenoid activity (individuals alive in these treatment groups)
O=C(NC(=O)c1c(F)cccc1F)Nc1ccc(OC(F)(F)C(F)OC(F)(F)F)c(Cl)c1 (racemic) [novaluron, (RS)-1-[3-chloro-4-(1,1,2-trifluoro-2-trifluoromethoxyethoxy)phenyl]-3-(2,6-difluorobenzoyl)urea]	molting abnormalities	
CC(COc1ccc(Oc2ccccc2)cc1)Oc1ccccn1 (centres unmarked) [pyriproxyfen, 4-phenoxyphenyl 2-(2-pyridyloxy)propyl ether]		twisted wings and darkened cuticle
